Experimental data as given in PMC11420944, “Targeted Degradation of Protein Kinase A via a Stapled Peptide PROTAC” (ACS Chemical Biology, 2024).

What was measured:
PKAc = target: T1, PKAc (Homo sapiens, UniProt P17612); assay: PKAc degradation in cells, Western blot densitometry; type: cell-based; conditions: MDA-MB-231 cells, n = 3
T1 construct: degrade native PKAc in cells, MDA-MB-231 cells were used; endogenous in cells; host or cells: MDA-MB-231 (ATCC HTB-26)
Excerpt: To determine whether StIP-TAC could successfully degrade native PKAc in cells, MDA-MB-231 cells were used. […] We hypothesized this lack of a statistically significant effect may be a result of the compound’s relatively large molecular weight (∼3 kDa) and potentially limited cellular permeability, a common limitation of PROTAC molecules.[37]−[40] […] Based on this study, we aimed to improve delivery of our compound using SAINT Protein. […] To confirm that StIP-TAC-mediated degradation of PKAc resulted from recruitment of the proteasome, we incubated cells with 10 μM StIP-TAC alongside 10 μM proteasomal inhibitor MG-132 and subsequently screened for PKAc protein levels.
Cell-based PROTAC activity assays. MDA-MB-231 cells were grown on 6-well tissue culture plates (BD Biosciences). Cells were serum-starved for 24 hours in serum-free RPMI with penicillin/streptomycin, glucose, and L-glutamine. StIP-TAC treatment was prepared with SAINT-Protein reagent according to manufacturer protocol (Synvolux) and added to cells at a final concentration of 10 µM for 5 hours. For phosphorylation studies, cells were additionally stimulated with 50 µM forskolin for 30 minutes before harvesting. For H89-treated cells, 50 μM H89 was added 30 minutes before stimulation with forskolin. For degradation studies, cells were co-treated with 10 μM MG-132 (Selleck Chemicals) alongside StIP-TAC and DMSO treatments for the duration of the 5-hour experiment. For studies examining the NAE-mediated activation of CRL, cells were co-treated with 6 μM MLN4924 (Cayman Chemical) alongside StIP-TAC for the duration of the 5-hour experiment. For studies examining potential effects of StIP-3 on PKAc protein levels, cells were treated with 10 μM StIP-3 with or without SAINT-Protein reagent for 5 hours. Cells were harvested in Laemmli sample buffer, boiled for 10 minutes and protein levels were analyzed via western blotting. For control experiments, cells were incubated for 5 hours with an equivalent volume of DMSO or SAINT-Protein to the above studies, with or without forskolin stimulation.
To assess PKA degradation, anti-PKAc (1:1000, BD Biosciences) and anti-GAPDH (1:1000, Proteintech) primary antibodies were used. To assess PKA substrate phosphorylation, anti-phospho serine/threonine PKA substrate (1:1000, Cell Signaling Technology) and anti-tubulin (1:1000, Cell Signaling Technology) primary antibodies were used. To assess phosphorylation of VASP, anti-phospho VASP (1:1000, Cell […]
Signaling Technology) and anti-GAPDH (0.5 μg/mL, DSHB) primary antibodies were used. Incubation with primary antibodies was followed by incubation with anti-mouse […]
(§1) Biosciences). Western blot fluorescence detection was performed using a LI-COR Odyssey Fc imaging system. Data analysis was performed using GraphPad Prism […]
Table S1. Peptide and PROTAC sequences, expected and observed masses determined via HPLC-MS. Asterisks (*) represent residues of (S)-2-(4-pentenyl)- […]
(1 picture or pasted object on this page, not shown here)
(§2) Figure S3: Western blots for PKA degradation. Experiments were performed in triplicate (n=3) in low passage number MDA-MB-231 cells (ATCC HTB-26). Following t = 24 hour starvation in serum-free RPMI media, cells were treated for t = 5 hours with DMSO, SAINT-Protein Lipid reagent alone, 10 µM StIP-TAC, or 10 µM StIP-TAC incubated with SAINT-Protein Lipid reagent per manufacturer instructions. […]

[1] = tested on: phospho serine/threonine PKA substrate; assay: PKA substrate phosphorylation in forskolin-stimulated cells, Western blot; type: cell-based; conditions: MDA-MB-231 cells, 10 µM, 5 h, 50 µM forskolin 30 min, n = 3
Experimental: (§3) Next, we sought to assess whether StIP-TAC could also downregulate PKAc signaling in cells. For this experiment, cells were treated with forskolin to stimulate PKAc activity. Cells were either treated with DMSO, the small molecule PKAc inhibitor H89, StIP-TAC alone, or StIP-TAC with SAINT protein (Figure 4; Figure S7). […] (Figure 4C,D). A known PKA substrate, vasodilator-stimulated phosphoprotein (VASP),[42] was also probed for PKA-mediated phosphorylation (Figure S8).
Cell-based PROTAC activity assays. MDA-MB-231 cells were grown on 6-well tissue culture plates (BD Biosciences). Cells were serum-starved for 24 hours in serum-free RPMI with penicillin/streptomycin, glucose, and L-glutamine. StIP-TAC treatment was prepared with SAINT-Protein reagent according to manufacturer protocol (Synvolux) and added to cells at a final concentration of 10 µM for 5 hours. For phosphorylation studies, cells were additionally stimulated with 50 µM forskolin for 30 minutes before harvesting. For H89-treated cells, 50 μM H89 was added 30 minutes before stimulation […]
with forskolin. […]
Cells were harvested in Laemmli sample buffer, boiled for 10 minutes and protein levels were analyzed via western blotting. For control experiments, cells were incubated for 5 hours with an equivalent volume of DMSO or SAINT-Protein to the above studies, with or without forskolin stimulation.
To assess PKA degradation, anti-PKAc (1:1000, BD Biosciences) and anti-GAPDH (1:1000, Proteintech) primary antibodies were used. To assess PKA substrate phosphorylation, anti-phospho serine/threonine PKA substrate (1:1000, Cell Signaling […]
Incubation with primary antibodies was followed by incubation with anti-mouse […]
as §1
as §2, with “S7:” for “S3:”, “substrate phosphorylation.” for “degradation.”, “instructions. For forskolin-stimulated treatments, cells were incubated for 30 minutes with 50 µM forskolin” for “instructions.”
prior to harvesting in Laemmli sample buffer. For H89-inhibited treatments, cells were incubated for 30 minutes prior to forskolin stimulation with 50 µM H89. Lysates were run via SDS-PAGE and Western blotting performed anti-phospho serine/threonine PKA substrate (1:1000, Cell Signaling Technology) and anti-tubulin (1:1000, Cell Signaling Technology) primary antibodies.

phospho VASP = assay: VASP phosphorylation in forskolin-stimulated cells, Western blot; type: cell-based; conditions: MDA-MB-231 cells, 10 µM, 5 h, 50 µM forskolin 30 min, n = 3
Experimental: as §3
Cell-based PROTAC activity assays. MDA-MB-231 cells were grown on 6-well tissue culture plates (BD Biosciences). Cells were serum-starved for 24 hours in serum-free RPMI with penicillin/streptomycin, glucose, and L-glutamine. StIP-TAC treatment was prepared with SAINT-Protein reagent according to manufacturer protocol (Synvolux) and added to cells at a final concentration of 10 µM for 5 hours. For phosphorylation studies, cells were additionally stimulated with 50 µM forskolin for 30 minutes before harvesting. For H89-treated cells, 50 μM H89 was added 30 minutes before stimulation with forskolin. For degradation studies, cells were co-treated with 10 μM MG-132 (Selleck Chemicals) alongside StIP-TAC and DMSO treatments for the duration of the 5-hour experiment. […] Cells were harvested in Laemmli sample buffer, boiled for 10 minutes and protein levels were analyzed via western blotting. […]
Biosciences). Western blot fluorescence detection was performed using a LI-COR Odyssey Fc imaging system. […]
Table S1. Peptide and PROTAC sequences, expected and observed masses determined via HPLC-MS. […]
Figure S8: StIP-TAC inhibits phosphorylation of the PKA substrate VASP. […] (B) Densitometric quantification of Western blots […]
reduction in phosphorylated VASP in cells treated with H89 and StIP-TAC with SAINT Protein reagent. Quantification was performed via Li-COR Image Studio. **p=0.010; ***p<0.001; ns, not significant as assessed by one-way ANOVA and Bonferroni’s multiple comparisons test. […]

PKAc protein levels on co-treatment with NAE inhibitor MLN4924 (PKAc; 10 µM with SAINT Protein, plus 6 µM MLN4924, 5 h): rescued PKAc protein to baseline levels
PKAc protein levels on co-treatment with proteasomal inhibitor MG-132 (PKAc; 10 µM with SAINT Protein, plus 10 µM MG-132, 5 h): rescued PKAc protein to baseline levels
reduction of PKAc protein levels vs vehicle control (PKAc; 10 µM, 5 h, with SAINT Protein lipid reagent, normalized to GAPDH): approximately 50%
PKAc degradation, forskolin stimulated vs unstimulated (PKAc; 10 µM, 5 h, with or without 30 min 50 µM forskolin): no significant difference
PKAc protein levels vs vehicle control (PKAc; 10 µM, 5 h, without SAINT Protein lipid reagent, normalized to GAPDH): no significant reduction
Substance: Cereblon Ligand 1-PEG8-*TTY*DFIASGRTGRRNAI (sidechain bridge or staple) [StIP-TAC]
PKAc substrate phosphorylation ([1]; with SAINT Protein): significant reduction in substrate phosphorylation to near basal levels
phosphorylation of the approximately 55, 60, 80, and 100 kDa substrate bands ([1]; with SAINT Protein): statistically significant reduction
PKAc substrate phosphorylation ([1]; without SAINT Protein): did not yield a significant reduction
VASP phosphorylation (phospho VASP; with SAINT-Protein): significant inhibition
VASP phosphorylation (phospho VASP; without SAINT Protein): did not result in a significant reduction
cell permeability (cells): no longer permeable
